Assay results from patent US11225512B2, “Compositions and methods for ceramide-elevating therapeutic strategies” (University of New Hampshire, priority 2017, dated 2022).

Key:
ceramide neutralization = test: Decitabine treatment of FLT3^ITD transgenic mice, gene expression by qRT-PCR; format: in vivo
Experimental: Decitabine treatment downregulates ceramide neutralization in FLT3^ITD transgenic mice while augmenting gdf1 expression. 8-12 week old mice harboring an internal tandem duplication in the Flt3 gene were treated with the hypomethylating agent, decitabine, at 0.2 mg/kg, 3 times weekly, for 6 weeks. Results were generated using qRT-PCR and normalized to housekeeping genes (Actb, RpII, Tbp). […] Treatment with decitabine reversed ugcg expression and led to downregulation of cers1 as compared to control mice. […] As expected, other related genes are also affected by decitabine treatment.
Hypomethylating Treatment Reverses the Effect of Leukemogenic Transgenes on Ceramide Detoxification. Myeloid hematological malignancies such as AML and myelodysplastic syndrome (MDS) are frequently treated with hypomethylating agents such as decitabine. In particular, treatment and management of MDS commonly utilizes these strategies to attempt to prevent the transformation of this bone marrow failure-like condition to AML. In this experiment, we utilized aged FLT3^ITD transgenic mice treated with/without decitabine and monitored the changes to the expression of genes in the bone marrow that regulate the production of bioactive sphingolipids.

[1] = test system: AML cell lines (HL-60, Kasumi-1 and Kasumi-3); test: Gdf1 treatment of AML cell lines, gene expression by qRT-PCR; format: cell-based; conditions: 50 ng/mL, 24 hours; HL-60, Kasumi-1, Kasumi-3; compared to untreated counterparts
Experimental: Gdf1 treatment of AML cell lines triggers downregulation of ceramide neutralization pathways. AML cell lines (HL-60, Kasumi-1 and Kasumi-3), were treated with recombinant human gdf1 at a concentration of 50 ng/mL for 24 hours. Results were obtained via qRT-PCR and compared to housekeeping genes (Actb, RpII).

[2] = test system: hematopoietic progenitor cells; test: Gdf1 treatment of bone marrow, flow cytometry immunophenotyping of LT-HSC and MPP; format: cell-based; conditions: 50 ng/mL, 24 hours; bone marrow of hybrid mice
Experimental: Gdf1 treatment promotes quiescence exit of hematopoietic progenitor cells. Bone marrow of hybrid mice was treated with human recombinant Gdf1 at a concentration of 50 ng/mL for 24 hours. Flow cytometry was used in immunophenotyping cells into subpopulations of long-term hematopoietic stem cells (LT-HSC) and multipotent progenitor cells (MPP). LT-HSCs were defined as Lin−, C-kit+, Sca-1+, CD150+, CD48−. MPPs were defined as Lin−, C-kit+, Sca-1+, CD150−, CD48−. Quiescent cells were defined as CD34+.

Molecule	gdf1 expression (ceramide neutralization; FLT3^ITD mice, decitabine 0.2 mg/kg, 3 times weekly, 6 weeks)	cers1 expression (ceramide neutralization; FLT3^ITD mice, decitabine 0.2 mg/kg, 3 times weekly, 6 weeks, compared to control mice)	ugcg expression (ceramide neutralization; FLT3^ITD mice, decitabine 0.2 mg/kg, 3 times weekly, 6 weeks, qRT-PCR normalized to Actb, RpII, Tbp)	relationship between gdf1 and either ugcg or sgms1 expression (ceramide neutralization; bone marrow of aged FLT3^ITD transgenic mice treated with/without decitabine)	cers1 expression [1]	ugcg expression [1]	cells bearing the CD34 marker (quiescent cells) in LT-HSC and MPP populations [2]	population of MPPs in the overall pool of analyzed cells [2]
Nc1ncn([C@H]2C[C@H](O)[C@@H](CO)O2)c(=O)n1 [decitabine, 5-aza-2′-deoxycytidine]	upregulated	downregulation	reversed	inverse relationship				
Gdf1: Recombinant human Growth Differentiation Factor 1, a BMP family member and TGF-beta signaling pathway intermediate (protein, listed as Homo sapiens) MPPPQQGPCGHHLLLLLALLLPSLPLTRAPVPPGPAAALLQALGLRDEPQGAPRLRPVPPVMWRLFRRRDPQETRSGSRRTSPGVTLQPCHVEELGVAGNIVRHIPDRGAPTRASEPASAAGHCPEWTVVFDLSAVEPAERPSRARLELRFAAAAAAAPEGGWELSVAQAGQGAGADPGPVLLRQLVPALGPPVRAELLGAAWARNASWPRSLRLALALRPRAPAACARLAEASLLLVTLDPRLCHPLARPRRDAEPVLGGGPGGACRARRLYVSFREVGWHRWVIAPRGFLANYCQGQCALPVALSGSGGPPALNHAVLRALMHAAAPGAADLPCCVPARLSPISVLFFDNSDNVVLRQYEDMVVDECGCR					downregulated	downregulated	decrease	increase
